Experiments:
Type in all cases: cell-based
TRAAK channel [1] = biological target: T1, TRAAK channel (Mus musculus, UniProt O88454); assay: TRAAK currents in Xenopus oocytes injected with TRAAK cRNA, imposed voltage technique
T1 construct: an open reading phase of 1197 nucleotides coding for a polypeptide of 398 residues; expressed in transfected cells; host or cells: COS cells (transient)
T1 sequence (O88454 1-398): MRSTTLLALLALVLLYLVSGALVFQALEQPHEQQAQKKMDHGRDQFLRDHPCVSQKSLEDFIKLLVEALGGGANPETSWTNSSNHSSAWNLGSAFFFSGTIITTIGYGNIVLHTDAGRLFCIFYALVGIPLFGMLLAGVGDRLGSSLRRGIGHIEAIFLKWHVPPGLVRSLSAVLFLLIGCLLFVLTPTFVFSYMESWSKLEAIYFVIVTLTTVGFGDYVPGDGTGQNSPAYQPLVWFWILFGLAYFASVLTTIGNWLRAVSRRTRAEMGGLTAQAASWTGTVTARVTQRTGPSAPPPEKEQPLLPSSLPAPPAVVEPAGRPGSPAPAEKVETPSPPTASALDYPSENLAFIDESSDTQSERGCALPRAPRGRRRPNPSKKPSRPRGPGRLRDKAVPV
Method: In (a): the oocytes were maintained at a potential of −80 mV then the currents were recorded following potential jumps from −150 to +50 mV by increments of 20 mV. The recordings were performed in an external medium containing a K^+ concentration of 2 mM or 74 mM. In (b): current-potential relation was according to the same experimental set-up as in (a). In (c): potential reversal (Erev) of the TRAAK currents were a function of the external K^+ concentration. In (d): currents recorded on COS cells transfected by TRAAK according to the same protocol as in (a). In (e): current-potential relation was according to the same experimental set-up as in (d).
(§1) For the functional study, the coding sequence of TRAAK was inserted in the vector pEXO and a complementary RNA (cRNA) was synthesized from this construction and injected in Xenopus oocytes. For expression in the COS cells, the TRAAK sequence was subcloned in an expression vector under the control of a eukaryote promoter and transfected into the cells. An absent non-inactivating current from the oocytes and the control cells was measured by the imposed voltage technique as represented in FIG. 4. The activation was instantaneous and could not be resolved because it was masked by the capacitive discharge of the current recorded at the beginning of the potential jump. The current-potential relation rectified in the outgoing direction when the external K^+ concentration was equal to 2 mM. Incoming currents were observed when the external K^+ concentration was increased. At all concentrations, the current-potential curves followed the Goldman-Hodgkin-Katz relation. […] The TRAAK channel is selective for potassium. Reversal of the current potential follows the equilibrium potential of K^+ and changing the concentration of K^+ by 10 leads to a change in the potential inversion value conforming to the value predicted by Nernst's equation (48.7±0.7 mV times 10, n=4).

TRAAK channel [2] = biological target: T1, TRAAK channel; assay: TRAAK currents in transfected COS cells, imposed voltage technique; set-up: increase in the current induced by AA: dose or concentration left out as unconfirmed
Method: as §1, with “The maintenance potential was -80 mV. In FIG. 9b: dose-effect relation ofthe activation” for “For the functional study, the coding sequence”, “by AA is shown. In FIG. 9c: current-potential relations obtained as in FIG. 9a” for “was inserted”, “outside-out configuration are shown. […] In FIG. 9d: a histogram represents the coefficient of augmentation of the currents obtained after application of various fatty acids (10 μM). […] The coefficient of augmentation is indicated in each case. […] The current-potential relations were obtained as in FIG. 9a above” for “vector pEXO”, “after application ofriluzole (100 μM) on the transfected COS cells. […]” for “a complementary RNA (cRNA) was synthesized from this construction and injected in Xenopus oocytes.”

TREK-1 channel [3] = biological target: T2, TREK-1 channel (Mus musculus, UniProt P97438); assay: TREK-1 currents in transfected COS cells, patch recording; conditions: AA 10 μM applied in the external medium, transfected COS cells
T2 construct: expressed in transfected cells; host or cells: COS cells
T2 sequence (P97438 with tags, fused parts or gaps isoform P97438-2 T63A/R366M): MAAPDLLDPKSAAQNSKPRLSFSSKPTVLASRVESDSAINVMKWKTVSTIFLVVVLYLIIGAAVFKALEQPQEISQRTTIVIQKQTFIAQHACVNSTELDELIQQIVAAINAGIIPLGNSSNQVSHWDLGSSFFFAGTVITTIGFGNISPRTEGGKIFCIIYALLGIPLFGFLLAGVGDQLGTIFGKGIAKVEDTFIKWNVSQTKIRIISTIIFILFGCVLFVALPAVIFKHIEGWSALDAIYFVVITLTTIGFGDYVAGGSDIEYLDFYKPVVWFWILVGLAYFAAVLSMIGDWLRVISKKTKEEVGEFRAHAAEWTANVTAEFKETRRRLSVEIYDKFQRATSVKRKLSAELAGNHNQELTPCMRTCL
Method: (§2) In FIG. 8a: the activity of TREK-1 was recorded in the attached cell configuration. The patch was stimulated by a potential ramp lasting 800 msec every 5 seconds. The currents were measured at 80 mV. The applications of arachidonic acid (AA, 10 μM) are indicated by the horizontal bars. During the experiment, the patch was stimulated by tensions of 50 mmHg (indicated by the arrows). At 9 minutes, the patch was excised in the inside-out configuration. In FIG. 8b: current-potential relations corresponding to the experiment illustrated in FIG. 8a is shown. In FIG. 8c: activity of TREK-1 in the attached cell configuration with 10 μM AA in the pipette can be seen. The potential ramp lasted 800 msec and the currents were measured at 80 mV. In FIG. 8d: single-channel current-potential relations at the moment at which the pipette was placed on the membrane or after 20 minutes and 1 minute after the patch was excised in the inside-out configuration. […] The current was measured at 80 mV. In FIG. 8f: AA had no effect on the TREK-1 current measured in the intact cell when it was in the pipette. The current was measured 30 minutes after the patch was broken (control tracing) by a potential ramp of 800 msec. The current was then measured after an application of AA of 1 minute in the external medium (AA tracing).
(§3) FIGS. 10a and b are graphs showing the effect of riluzole on the TREK-1 and TRAAK […] currents. The current-potential relations were obtained as in FIG. 9a above and after application ofriluzole (100 μM) on the transfected COS cells.

TREK-1 channel [4] = biological target: T3, TREK-1 channel (Mus musculus, UniProt P97438, R381M/T78A); assay: as above
T3 construct: expressed in transfected cells; host or cells: COS cells
T3 sequence (P97438 with tags, fused parts or gaps isoform P97438-2 T63A/R366M): T2 sequence (P97438 with tags, fused parts or gaps isoform P97438-2 T63A/R366M)
Method: as §2, §3

TWIK-1 channel = biological target: T4, TWIK-1 channel (Homo sapiens, UniProt O00180); assay: TWIK-1 currents in transfected COS cells before and after AA; conditions: intact cell configuration
T4 construct: expressed in transfected cells; host or cells: COS cells (transient)
T4 sequence (O00180 1-336): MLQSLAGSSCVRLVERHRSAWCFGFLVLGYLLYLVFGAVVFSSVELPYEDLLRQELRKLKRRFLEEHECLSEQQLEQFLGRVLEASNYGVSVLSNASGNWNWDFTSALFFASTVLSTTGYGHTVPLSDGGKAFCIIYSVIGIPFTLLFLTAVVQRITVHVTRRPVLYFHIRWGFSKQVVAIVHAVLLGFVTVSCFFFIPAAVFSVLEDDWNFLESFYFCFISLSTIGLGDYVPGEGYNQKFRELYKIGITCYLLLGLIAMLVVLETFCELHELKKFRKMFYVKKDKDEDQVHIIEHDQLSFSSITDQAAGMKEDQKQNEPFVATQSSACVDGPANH

TASK channel = biological target: T5, TASK channel (Homo sapiens, UniProt O14649); assay: TASK currents in transfected COS cells before and after AA; conditions: intact cell configuration
T5 construct: expressed in transfected cells; host or cells: COS cells (transient)

control cells (CD8) = assay: Application of AA on control cells (CD8)
TRAAK channel [5] = biological target: T1, TRAAK channel; assay: TRAAK currents in transfected COS cells, imposed voltage technique; conditions: concentration of 10 μM
[6] = riluzole 100 μM, transfected COS cells

T5 sequence (O14649 whole entry): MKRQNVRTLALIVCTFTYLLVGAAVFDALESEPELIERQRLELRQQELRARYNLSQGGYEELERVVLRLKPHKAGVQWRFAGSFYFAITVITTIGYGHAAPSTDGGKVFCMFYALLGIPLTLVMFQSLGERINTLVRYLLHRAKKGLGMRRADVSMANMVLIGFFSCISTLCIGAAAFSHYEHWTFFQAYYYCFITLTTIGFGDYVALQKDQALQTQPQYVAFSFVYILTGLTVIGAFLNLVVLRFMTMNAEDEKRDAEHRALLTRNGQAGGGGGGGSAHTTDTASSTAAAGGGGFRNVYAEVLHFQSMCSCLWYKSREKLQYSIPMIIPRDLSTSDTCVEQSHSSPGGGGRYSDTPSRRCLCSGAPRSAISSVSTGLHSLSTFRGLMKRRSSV

SMILES: Nc1ccncc1 [4-aminopyridine]
- sensitivity of TRAAK to potassium channel blocking agents (TRAAK channel [1]; 1 mM): insensitive

SMILES: CCCCC/C=C\C/C=C\C/C=C\C/C=C\CCCC(=O)O [AA, arachidonic acid]
- activation of the TRAAK channel by AA (TRAAK channel [2]; AA 10 μM (FIG. 9a), transfected COS cells, reversible, concentration dependent): activated
- increase in the current induced by AA (TRAAK channel [2]; AA perfusion with mixture of inhibitors of AA metabolism, at +50 mV, n=3): 6.6±0.5 times
- activation of TREK-1 by AA (TREK-1 channel [3]): activated
- activation of TREK-1 by internal AA (TREK-1 channel [4]; AA in the pipette, intact cell, dialyzed up to 30 minutes): did not activate
- effect of activation by AA on TWIK-1 (TWIK-1 channel): No effects of the same type
- effect of activation by AA on TASK (TASK channel): No effects of the same type
- effect of AA on control cells (control cells (CD8)): no effect

SMILES: CCCCC/C=C\C/C=C\C/C=C\C/C=C\CCCC(=O)OC [AA-ME]
- activation of the TRAAK channel by fatty acids and derivatives (TRAAK channel [5]): inactive

SMILES: CCCCC/C=C\C/C=C\C/C=C\C/C=C\CCCCO [AA-OH]
- activation of the TRAAK channel by fatty acids and derivatives (TRAAK channel [5]): inactive

SMILES: CCC=CCC=CCC=CCC=CCC=CCC=CCCC(=O)OC [DOHA-ME]
- activation of the TRAAK channel by fatty acids and derivatives (TRAAK channel [5]): inactive

SMILES: Nc1nc2ccc(OC(F)(F)F)cc2s1 [Riluzole, riluzole]
- effect of riluzole on the TRAAK channel (TRAAK channel [2]; [6]): opener
- effect of riluzole on the TREK-1 channel (TREK-1 channel [4]; [6]): opener

SMILES: CCCCCCCCCCCCCCCCCCCC(=O)O [arachidic, arachidic acid]
- activation of the TRAAK channel by fatty acids and derivatives (TRAAK channel [5]): no effect

SMILES: CC/C=C\C/C=C\C/C=C\C/C=C\C/C=C\C/C=C\CCC(=O)O [docosohexaenoic, docosohexaenoic acid]
- activation of the TRAAK channel by fatty acids and derivatives (TRAAK channel [5]): activation

SMILES: CCCCC/C=C\C/C=C\CCCCCCCC(=O)O [linoleic, linoleic acid]
- activation of the TRAAK channel by fatty acids and derivatives (TRAAK channel [5]): activation

SMILES: CCCCCCCC/C=C\CCCCCCCC(=O)O [oleic, oleic acid]
- activation of the TRAAK channel by fatty acids and derivatives (TRAAK channel [5]): activation

SMILES: CCCCCCCCCCCCCCCC(=O)O [palmitic, palmitic acid]
- activation of the TRAAK channel by fatty acids and derivatives (TRAAK channel [5]): no effect

SMILES: C=C[C@H]1C[N@@]2CC[C@H]1C[C@H]2[C@H](O)c1ccnc2ccc(OC)cc12 [quinine]
- sensitivity of TRAAK to potassium channel blocking agents (TRAAK channel [1]; 100 mM): insensitive

SMILES: CCCCCCCCCCCCCCCCCC(=O)O [stearic, stearic acid]
- activation of the TRAAK channel by fatty acids and derivatives (TRAAK channel [5]): no effect

SMILES: CC[N+](CC)(CC)CC [tetraethylammonium]
- sensitivity of TRAAK to potassium channel blocking agents (TRAAK channel [1]; 1 mM): insensitive
